{
  "source": "patent US20220296625A1",
  "about": "(priority 2019, published 2022)",
  "key": {"male ICR mice": {"system": "male ICR mice", "assay": "Survival of mice after cisplatin i.p. with or without oral LPSp (Example 2)", "assay_type": "in vivo", "details": "cisplatin 17.4 mg/kg i.p.; for Survival rate (%): LPSp 1 mg/kg body weight/day in drinking water", "from_the_text": "(§1) Four-week-old male ICR mice were used."}, "male C57BL mice [1]": {"system": "male C57BL mice", "assay": "Survival of mice after streptozotocin i.p. with or without oral LPSp (Example 1)", "assay_type": "in vivo", "details": "STZ 250 mg/kg i.p.; for Survival rate (%): LPSp 100 μg/kg body weight/day in drinking water", "description": "1) Reagents • LPS (LPSp) derived from Pantoea agglomerans belonging to genus Pantoea of family Enterobacteriaceae (mac0001 of Macrophi Inc.) • Streptozotocin (STZ) (SAJ-S0130 of Sigma-Aldrich)\n(§2) Six-week-old male C57BL mice were used. […] As food, the D12450B diet of Research Diets, Inc. was provided.\nPBS administration group (PBS i.p.): 0.5 mL of phosphate buffer saline (PBS) were injected into the peritoneal cavity of each mouse."}, "male C57BL mice [2]": {"system": "male C57BL mice", "assay": "Survival of mice after streptozotocin i.p. with or without oral LPSea (Example 5)", "assay_type": "in vivo", "details": "STZ 313 mg/kg i.p.; for Survival rate (%): LPSea 1 mg/kg body weight/day in drinking water", "from_the_text": "1) Reagents • LPS (LPSea) derived from Enterobacter asburiae belonging to genus Enterobacter of family Enterobacteriaceae (Macrophi Inc.) • Streptozotocin (STZ) (SAJ-S0130 of Sigma-Aldrich)\nas §2"}, "[3]": {"assay_type": "in vivo, mice", "details": "for Mice body weights after anticancer agent administration (relative value in % with body weights for saline i.p. being 100): LPSp 1 mg/kg body weight/day in drinking water", "from_the_text": "as §1"}, "[4]": {"assay": "Body weight of mice after cyclophosphamide i.p. with or without oral LPSp (Example 3)", "details": "11th day and 13th day from administration; Tukey's multiple comparison test", "method": "Four-week-old male ICR mice were used. Husbandry of the mice was carried out in a temperature and humidity controlled animal facility under environmental conditions of ad libitum food and water, and 12 hr light/12 hr dark. As food, CE-12 of CLEA Japan, Inc. was provided. After measuring the body weights at the time of delivery, the mice were divided into 3 groups of 6 mice each.\nPhysiological saline administration group (saline i.p.): 0.5 mL of physiological saline were injected into the peritoneal cavity of each mouse."}},
  "note": "Read-outs that look alike come from different tables or passages of the source.",
  "data": [
    {"compound": "N.N.[Cl][Pt][Cl]", "note": "[CDDP i.p., Cisplatin]", "values": [
      {"measurement": "mice survived", "setting": "male ICR mice; 14th day, LPSp 1 mg/kg body weight/day, Kaplan-Meier test P<0.05", "value": "1 out of 6"},
      {"measurement": "mice died", "setting": "male ICR mice; by the 6th day from anticancer agent administration, LPSp 1 mg/kg body weight/day", "value": "5 out of 6"},
      {"measurement": "Survival rate (%)", "setting": "male ICR mice; day 5, 6 mice per group", "value": 50, "unit": "%"},
      {"measurement": "Survival rate (%)", "setting": "male ICR mice; day 6", "value": 16.7, "unit": "%"},
      {"measurement": "Survival rate (%)", "setting": "male ICR mice; day 7", "value": 16.7, "unit": "%"},
      {"measurement": "Survival rate (%)", "setting": "male ICR mice; day 14", "value": 16.7, "unit": "%"}
    ]},
    {"compound": "CN(N=O)C(=O)N[C@H]1C(O)O[C@H](CO)[C@@H](O)[C@@H]1O", "note": "(mixture of isomers) [STZ i.p., Streptozotocin]", "values": [
      {"measurement": "mice died", "setting": "male C57BL mice [1]; 5th day", "value": "6 out of 6"},
      {"measurement": "Survival rate (%)", "setting": "male C57BL mice [1]; day 3, 6 mice per group", "value": 66.7, "unit": "%"},
      {"measurement": "Survival rate (%)", "setting": "male C57BL mice [1]; day 4", "value": 33.3, "unit": "%"},
      {"measurement": "Survival rate (%)", "setting": "male C57BL mice [1]; day 4.5", "value": 33.3, "unit": "%"},
      {"measurement": "Survival rate (%)", "setting": "male C57BL mice [1]; day 5", "value": 0.0, "unit": "%"},
      {"measurement": "Survival rate (%)", "setting": "male C57BL mice [1]; day 9", "value": 0.0, "unit": "%"},
      {"measurement": "Survival rate (%)", "setting": "male C57BL mice [1]; day 11", "value": 0.0, "unit": "%"},
      {"measurement": "Survival rate (%)", "setting": "male C57BL mice [1]; day 21", "value": 0.0, "unit": "%"},
      {"measurement": "Survival rate (%)", "setting": "male C57BL mice [1]; day 29", "value": 0.0, "unit": "%"},
      {"measurement": "mice died", "setting": "male C57BL mice [2]; by the 4th day from anticancer agent administration, LPSea 1 mg/kg body weight/day", "value": "1 out of 6"},
      {"measurement": "Survival rate (%)", "setting": "male C57BL mice [2]; day 3, 6 mice per group", "value": 100, "unit": "%"},
      {"measurement": "Survival rate (%)", "setting": "male C57BL mice [2]; day 4", "value": 83.33, "unit": "%"},
      {"measurement": "Survival rate (%)", "setting": "male C57BL mice [2]; day 8", "value": 83.33, "unit": "%"}
    ]},
    {"compound": "O=c1[nH]cc(F)c(=O)[nH]1", "note": "[5-FU i.p., 5-fluorouracil]", "values": [
      {"measurement": "Mice body weights after anticancer agent administration (relative value in % with body weights for saline i.p. being 100)", "setting": "[3]; 0 day, 5-fluorouracil 360 mg/kg i.p.", "value": "102.0 ± 2.4", "unit": "%"},
      {"measurement": "weight loss in comparison to the physiological saline administration group", "setting": "[3]; 3rd day from anticancer agent administration, 5-fluorouracil 360 mg/kg i.p., Tukey's multiple comparison test", "value": "significant weight loss"},
      {"measurement": "body weight, comparison of 5-FU i.p. and 5-FU i.p.+LPS groups", "setting": "[3]; 6th day, Tukey's multiple comparison test P<0.05", "value": "significantly low"},
      {"measurement": "Mice body weights after anticancer agent administration (relative value in % with body weights for saline i.p. being 100)", "setting": "[3]; 3 day, 5-fluorouracil 360 mg/kg i.p.", "value": "91.8 ± 4.1", "unit": "%"},
      {"measurement": "Mice body weights after anticancer agent administration (relative value in % with body weights for saline i.p. being 100)", "setting": "[3]; 6 day, 5-fluorouracil 360 mg/kg i.p.", "value": "94.5 ± 2.6^ %"}
    ]},
    {"compound": "O=P1(N(CCCl)CCCl)NCCCO1", "note": "(stereo not shown) [CY i.p., Cyclophosphamide]", "values": [
      {"measurement": "weight loss in comparison to the physiological saline administration group", "setting": "[4]", "value": "significant weight loss"}
    ]}
  ]
}
